# In patent publication EP2100894A1, “Pyridopyrimidines used as Plk1 (polo-like kinase) inhibitors” (4SC AG, priority 2008, dated 2009):
# Target: T1, PIk1 (Homo sapiens, UniProt P53350)
# T1 construct: His tag (histidine tag) (N); made in house; host or cells: SF9 insect cells
# Experiment: PIk1 kinase activity inhibition assay (33P incorporation into alpha casein, flash plates)
# Type: biochemical
# Conditions: recombinant N-terminally histidine-tagged PIk1, alpha casein as substrate, 100 nM Li-ATP, 80 minutes at 30°C
# Summary of the method: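 N-terminally His-tagged human Plk1 from SF9 cells (50–100 ng/well) phosphorylated alpha casein with 100 nM Li-ATP plus 33P-ATP in HEPES pH 7.5, MgCl2/MnCl2 buffer for 80 minutes at 30°C. After H3PO4 stop and washing, casein-bound 33P was counted on scintillator-coated flash plates to derive IC50.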
# T1 sequence (P53350 whole entry): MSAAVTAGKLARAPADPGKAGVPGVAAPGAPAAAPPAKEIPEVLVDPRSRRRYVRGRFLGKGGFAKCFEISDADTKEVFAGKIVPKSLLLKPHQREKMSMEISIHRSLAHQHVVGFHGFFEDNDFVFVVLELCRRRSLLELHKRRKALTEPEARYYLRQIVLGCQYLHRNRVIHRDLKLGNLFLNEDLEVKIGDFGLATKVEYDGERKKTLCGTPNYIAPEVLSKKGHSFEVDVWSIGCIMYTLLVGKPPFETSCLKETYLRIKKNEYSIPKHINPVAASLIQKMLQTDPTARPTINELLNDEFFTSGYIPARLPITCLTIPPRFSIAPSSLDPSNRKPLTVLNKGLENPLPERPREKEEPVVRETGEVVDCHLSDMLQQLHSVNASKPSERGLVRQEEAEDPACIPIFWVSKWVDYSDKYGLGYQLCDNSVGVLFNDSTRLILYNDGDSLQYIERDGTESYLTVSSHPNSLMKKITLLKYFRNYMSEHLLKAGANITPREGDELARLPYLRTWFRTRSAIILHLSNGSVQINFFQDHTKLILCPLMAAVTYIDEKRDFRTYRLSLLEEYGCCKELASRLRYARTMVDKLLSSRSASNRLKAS
row,IC50,Compound
1,< 0.1 µM,"COc1cc(C(=O)NC2CCN(C)CC2)ccc1Nc1ncc2c(n1)c(-c1ccccc1C)c(OCC1CC1)c(=O)n2C [Example 71, 4-{[7-(cyclopropylmethoxy)-5-methyl-8-(2-methylphenyl)-6-oxo-5,6-dihydropyrido[3,2-d]pyrimidin-2-yl]amino}-3-methoxy-N-(1-methylpiperidin-4-yl)benzamide]"
2,< 0.01 µM,"CCc1cc(C(=O)NC2CCN(C)CC2)ccc1Nc1ncc2c(n1)c(-c1ccsc1)c(OCC1CC1)c(=O)n2C [Example 72, 4-{[7-(cyclopropylmethoxy)-5-methyl-6-oxo-8-(3-thienyl)-5,6-dihydro-pyrido[3,2-d]pyrimidin-2-yl]amino}-3-ethyl-N-(1-methylpiperidin-4-yl)benzamide]"
3,< 0.01 µM,"COc1cc(C(=O)NC2CCN(C)CC2)ccc1Nc1ncc2c(n1)c(-c1ccc[nH]1)c(OCC1CC1)c(=O)n2C [Example 73, 4-{[7-(cyclopropylmethoxy)-5-methyl-6-oxo-8-(1H-pyrrol-2-yl)-5,6-dihydro-pyrido[3,2-d]pyrimidin-2-yl]amino}-3-methoxy-N-(1-methylpiperidin-4-yl)benzamide]"
4,< 0.01 µM,"COc1cc(C(=O)NC2CCN(C)CC2)ccc1Nc1ncc2c(n1)c(-c1ccccn1)c(OCC1CC1)c(=O)n2C [Example 74, 4-{[7-(cyclopropylmethoxy)-5-methyl-6-oxo-8-pyridin-2-yl-5,6-dihydro-pyrido[3,2-d]pyrimidin-2-yl]amino}-3-methoxy-N-(1-methylpiperidin-4-yl)benzamide]"
5,< 0.01 µM,"CCOc1cc(C(=O)NC2CCN(C)CC2)ccc1Nc1ncc2c(n1)c(-c1ccsc1)c(OCC1CC1)c(=O)n2C [Example 75, 4-{[7-(cyclopropylmethoxy)-5-methyl-6-oxo-8-(3-thienyl)-5,6-dihydro-pyrido[3,2-d]pyrimidin-2-yl]amino}-3-ethoxy-N-(1-methylpiperidin-4-yl)benzamide]"
6,< 0.01 µM,"COc1cc(C(=O)NC2CCN(C)CC2)ccc1Nc1ncc2c(n1)c(-c1cc[nH]c1)c(OCC1CC1)c(=O)n2C [Example 76, 4-{[7-(cyclopropylmethoxy)-5-methyl-6-oxo-8-(1H-pyrrol-3-yl)-5,6-dihydro-pyrido[3,2-d]pyrimidin-2-yl]amino}-3-methoxy-N-(1-methylpiperidin-4-yl)benzamide]"
